Assay results published in patent US20240091226A1, “Forms and Formulations Of A Tyrosine Kinase Non-Receptor 1 (TNK1) Inhibitor” (Sumitomo Pharma Oncology, inc., priority 2021, published 2024).
Read-outs that look alike come from different tables or passages of the source.

How the values were obtained:
A549 cells = assay: Soft agar colony formation assay, 3D vs 2D; assay type: cell-based; conditions: for IC50: Homo sapiens, A549, Lung
Description: (§1) In cancer research, natural cell characteristics and architectures can often be more closely mimicked by 3D cell models than monolayer cultures. The comparative efficacy of compound of structural formula I was explored in 2D and 3D culture systems using the soft agar colony formation assay and PDXO cultures. In each case, viability of the culture was assessed after treatment with compound of structural formula I.
(§2) Soft Agar Colony Formation Assay. Soft agar colony formation assay was performed in 10 cell lines from a variety of tumor types ranging from lung cancers to colorectal and prostate cancers (Pro Quinase Reaction Biology, Project Number: 17262). A complete list of tumor types used in the assay can be found in Table 7.1.

HT29 cells = assay: Soft agar colony formation assay, 3D vs 2D; assay type: cell-based; conditions: for IC50: Homo sapiens, HT-29, HT29, Colorectal
Description: as §1, §2

DU145 cells = assay: Soft agar colony formation assay, 3D vs 2D; assay type: cell-based; conditions: for IC50: Homo sapiens, DU-145, DU145, Prostate
Description: as §1, §2

[1] = system: CR5088B organoid (Colorectal); assay: PDXO viability assay (Cell Titre Glo); assay type: cell-based; conditions: 120 h, 5 days of treatment
Description: as §1
(§3) Viability Assay in Patient-Derived Xenograft Organoid Cell Lines (PDXO). To mimic more closely cancer tissue-like architecture, PDX organoids derived from patient-derived xenograft tissue were utilized. Viability assay was performed in 10 PDXO models, and the IC50 values were assessed after 5 days of treatment with compound of structural formula I using Cell Titre Glo.

[2] = system: ES6470B organoid (Esophageal); assay: PDXO viability assay (Cell Titre Glo); assay type: cell-based; conditions: 120 h, 5 days of treatment
Description: as §1, §3

LU11693B organoid (Lung) = assay: PDXO viability assay (Cell Titre Glo); assay type: cell-based; conditions: 120 h, 5 days of treatment
Description: as §1, §3

LU6800B organoid (Lung) = assay: PDXO viability assay (Cell Titre Glo); assay type: cell-based; conditions: 120 h, 5 days of treatment
Description: as §1, §3

10 PDXO models = assay: PDXO viability assay (Cell Titre Glo); assay type: cell-based; conditions: all of the organoids tested, except CR6863B
Description: as §1, §3

[3] = system: CR6863B organoid (Colorectal); assay: PDXO viability assay (Cell Titre Glo); assay type: cell-based; conditions: 120 h, 5 days of treatment
Description: as §1, §3

[4] = system: BL5001B organoid (Bladder); assay: PDXO viability assay (Cell Titre Glo); assay type: cell-based; conditions: 120 h, 5 days of treatment
Description: as §1, §3

[5] = system: CR1489B organoid (Colorectal); assay: PDXO viability assay (Cell Titre Glo); assay type: cell-based; conditions: 120 h, 5 days of treatment
Description: as §1, §3

LU0743B organoid (Lung) = assay: PDXO viability assay (Cell Titre Glo); assay type: cell-based; conditions: 120 h, 5 days of treatment
Description: as §1, §3

LU11873B organoid (Lung) = assay: PDXO viability assay (Cell Titre Glo); assay type: cell-based; conditions: 120 h, 5 days of treatment
Description: as §1, §3

[6] = system: GA6891B organoid (Gastric); assay: PDXO viability assay (Cell Titre Glo); assay type: cell-based; conditions: 120 h, 5 days of treatment
Description: as §1, §3

[7] = system: 10 cell lines from a variety of tumor types; assay: 2D culture viability (counterpart of soft agar assay); assay type: cell-based
Description: as §1, §2

[8] = system: 10 cell lines from a variety of tumor types; assay: Soft agar colony formation assay (3D colonies); assay type: cell-based; conditions: for IC50: 3D soft agar colonies
Description: as §1, §2

Apc^Min+/− mice = assay: ApcMin mouse efficacy model; assay type: in vivo
Description: TNK1 upregulation is reported to play a role in the pathogenic process of intestinal barrier disruption in a transgenic mice model of increased TNK1 expression/activation (PMID: 30320600). Therefore, the efficacy of the compound of structural formula I was evaluated in germline mutant mouse model of intestinal neoplasia and cachexia, Apc^Min+/− model, which is also known to induce gut barrier dysfunction (PMID: 21914473). Apc^Min+/− mice are reported to start the development of tumors at approximately 4 weeks of age. Twenty female Apc^Min+/− mice (JAX Stock No: 002020) were enrolled in the study at the age of 10 weeks. Randomization was done based on the body weight, and animals were divided into four treatment groups (5 mice/group). […] Celecoxib is a COX-2 inhibitor, and was used as a positive control because it has been reported to prevent and regress adenomas in APC model (PMID: 11016626). Mice were sacrificed 2 hours after the last dose of total 10 weeks of dosing (71 days), at the age of 20 weeks. After dosing started, the animals were checked daily for morbidity and mortality.

[9] = Four-week capsule stability: assay and related substances (HPLC); assay type: physicochemical; conditions: initial (not stored)
Description: Methods: Samples were stored (closed) at 40° C. and […] (RH). Appearance, water content, assay and related substances (HPLC) were tested (n=6), sink dissolution.

[10] = 3D soft agar colonies, read-out: 3D IC50
[11] = Homo sapiens, HCT-116, HCT116, Colorectal

COc1cc(N2CCN(C)CC2)c(Cl)cc1Nc1ncc(Cl)c(Nc2cccnc2N2CCCC2=O)n1 [compound of structural formula I, 1-(3-((5-chloro-2-((5-chloro-2-methoxy-4-(4-methylpiperazin-1-yl)phenyl)amino)pyrimidin-4-yl)amino)pyridin-2-yl)pyrrolidin-2-one]
shift in IC50, 3D colonies vs 2D (A549 cells; A549): approximately 40 fold
IC50 (A549 cells; 2D culture, read-out: 2D IC50): > 10000 nM
IC50 (A549 cells; [10]): 250 nM
shift in IC50, 3D colonies vs 2D (HT29 cells; HT29): approximately 32 fold
IC50 (HT29 cells; 2D culture, read-out: 2D IC50): 7680 nM
IC50 (HT29 cells; [10]): 240 nM
shift in IC50, 3D colonies vs 2D (DU145 cells; DU145): approximately 19 fold
IC50 (DU145 cells; 2D culture, read-out: 2D IC50): 2700 nM
IC50 (DU145 cells; [10]): 140 nM
IC50 [1]: 3250 nM
IC50 [2]: 510 nM
IC50 (LU11693B organoid (Lung)): 2120 nM
IC50 (LU6800B organoid (Lung)): 400 nM
IC50 (10 PDXO models): < 10000 nM
IC50 [3]: 10100 nM
IC50 [4]: 400 nM
IC50 [5]: 2180 nM
IC50 (LU0743B organoid (Lung)): 2430 nM
IC50 (LU11873B organoid (Lung)): 440 nM
IC50 [6]: 1240 nM
IC50 [7, 11]: 3360 nM
IC50 ([7]; Homo sapiens, Lovo, Colorectal): 3580 nM
IC50 ([7]; PC3, Prostate): > 10000 nM
IC50 ([8]; Homo sapiens, A2058, A2058, Melanoma): 980 nM
IC50 ([8]; Homo sapiens, C-33-A, C33A, Cervical): 900 nM
IC50 [8, 11]: 750 nM
IC50 ([8]; Homo sapiens, LoVo, Colorectal): 2900 nM
IC50 ([8]; Homo sapiens, SW948, SW948, Colorectal): 730 nM
IC50 ([8]; PC3, Prostate): 870 nM
IC50 ([8]; T84, Colorectal): 1500 nM
sensitivity of 3D colonies compared to 2D counterparts (in words) ([8]; most of the cell lines tested): increased sensitivity
reduction of spleen size compared to vehicle (Apc^Min+/− mice; 10 mg/kg): approximately 52%
reduction of spleen size compared to vehicle (Apc^Min+/− mice; 25 mg/kg): approximately 40%
decrease in number of polyps in the intestine compared to vehicle (Apc^Min+/− mice; 25 mg/kg once daily oral gavage, 10 weeks, female Apc^Min+/− mice): approximately 49%
mean spleen weight (Apc^Min+/− mice; 25 mpk): 191 mg
polyp growth (Apc^Min+/− mice; FIG. 8B): inhibits polyp growth
splenomegaly and inflammation (Apc^Min+/− mice; FIG. 8C): attenuated
Related substance at RRT 0.84 [9]: <0.05%
Related substance at RRT 0.89 [9]: 0.15%
Related substance at RRT 0.97 [9]: 0.15%
Related substance at RRT 1.08 [9]: 0.11%
Related substance at RRT 1.13 [9]: <0.05%
Related substance at RRT 1.20 [9]: 0.09%
Related substance at RRT 1.21 [9]: 0.05%
Related substance at RRT 1.24 [9]: 0.08%
Related substance at RRT 1.29 [9]: <0.05%
Related substance at RRT 1.33 [9]: <0.05%
Total Impurities [9]: 0.63%
